This note sets out measurements from ChEMBL document CHEMBL5291721, “A preclinical secondary pharmacology resource illuminates target-adverse drug reaction associations of marketed drugs” (Nat Commun, 2023).

The term AC50 denotes the concentration at which the activity in the assay is half-maximal.

Experiment [1] has as its target Gamma-aminobutyric acid receptor subunit alpha-1 (Rattus norvegicus, UniProt P62813).
Experiment [2] deals with Sodium-dependent noradrenaline transporter (Homo sapiens, UniProt P23975).
Experiment [3] deals with 5-hydroxytryptamine receptor 2B (Homo sapiens, UniProt P41595). In kind it is functional, cell-based.
Experiment [4] has as its target T1, B2 bradykinin receptor (Homo sapiens, UniProt P30411).
T1 sequence (P30411 whole entry): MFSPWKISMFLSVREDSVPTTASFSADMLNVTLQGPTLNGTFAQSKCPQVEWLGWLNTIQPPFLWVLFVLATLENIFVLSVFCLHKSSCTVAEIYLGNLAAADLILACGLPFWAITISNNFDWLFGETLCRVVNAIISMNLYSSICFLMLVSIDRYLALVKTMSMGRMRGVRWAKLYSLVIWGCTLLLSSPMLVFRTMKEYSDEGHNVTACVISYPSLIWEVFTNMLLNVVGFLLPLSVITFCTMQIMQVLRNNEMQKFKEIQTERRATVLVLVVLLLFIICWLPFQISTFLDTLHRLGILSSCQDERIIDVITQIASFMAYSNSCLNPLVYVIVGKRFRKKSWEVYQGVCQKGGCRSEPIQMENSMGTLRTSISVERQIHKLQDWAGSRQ

For experiment [5], the target named is T2, Thromboxane A2 receptor (Homo sapiens, UniProt P21731).
T2 sequence (P21731 whole entry): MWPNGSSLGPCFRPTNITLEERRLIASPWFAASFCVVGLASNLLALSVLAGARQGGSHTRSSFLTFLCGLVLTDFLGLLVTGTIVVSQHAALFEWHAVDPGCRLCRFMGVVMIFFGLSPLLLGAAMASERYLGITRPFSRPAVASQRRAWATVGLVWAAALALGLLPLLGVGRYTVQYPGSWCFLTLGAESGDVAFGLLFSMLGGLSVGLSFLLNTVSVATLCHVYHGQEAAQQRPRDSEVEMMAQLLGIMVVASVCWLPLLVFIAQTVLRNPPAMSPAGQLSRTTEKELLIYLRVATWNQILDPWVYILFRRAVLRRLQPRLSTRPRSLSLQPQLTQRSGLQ

The target in experiment [6] is Melanocortin receptor 3 (Homo sapiens, UniProt P41968).
The target of experiment [7] is T3, Alpha-2A adrenergic receptor (Homo sapiens, UniProt P08913).
T3 sequence (P08913 whole entry): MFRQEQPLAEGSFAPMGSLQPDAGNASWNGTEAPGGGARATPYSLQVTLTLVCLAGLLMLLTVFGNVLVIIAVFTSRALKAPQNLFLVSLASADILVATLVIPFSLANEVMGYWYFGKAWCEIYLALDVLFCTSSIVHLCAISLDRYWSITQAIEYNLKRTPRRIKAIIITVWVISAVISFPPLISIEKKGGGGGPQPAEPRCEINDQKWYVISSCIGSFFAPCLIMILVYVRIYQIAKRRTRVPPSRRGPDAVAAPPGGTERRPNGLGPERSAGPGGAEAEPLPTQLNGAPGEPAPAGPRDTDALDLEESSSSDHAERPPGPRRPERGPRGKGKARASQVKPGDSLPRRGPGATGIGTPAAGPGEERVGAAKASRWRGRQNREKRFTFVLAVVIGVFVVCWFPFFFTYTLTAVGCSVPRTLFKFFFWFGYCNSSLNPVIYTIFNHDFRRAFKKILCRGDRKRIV
It counts as functional, cell-based.

Experiment [8] has as its target T4, Progesterone receptor (Homo sapiens, UniProt P06401).
T4 sequence (P06401 whole entry): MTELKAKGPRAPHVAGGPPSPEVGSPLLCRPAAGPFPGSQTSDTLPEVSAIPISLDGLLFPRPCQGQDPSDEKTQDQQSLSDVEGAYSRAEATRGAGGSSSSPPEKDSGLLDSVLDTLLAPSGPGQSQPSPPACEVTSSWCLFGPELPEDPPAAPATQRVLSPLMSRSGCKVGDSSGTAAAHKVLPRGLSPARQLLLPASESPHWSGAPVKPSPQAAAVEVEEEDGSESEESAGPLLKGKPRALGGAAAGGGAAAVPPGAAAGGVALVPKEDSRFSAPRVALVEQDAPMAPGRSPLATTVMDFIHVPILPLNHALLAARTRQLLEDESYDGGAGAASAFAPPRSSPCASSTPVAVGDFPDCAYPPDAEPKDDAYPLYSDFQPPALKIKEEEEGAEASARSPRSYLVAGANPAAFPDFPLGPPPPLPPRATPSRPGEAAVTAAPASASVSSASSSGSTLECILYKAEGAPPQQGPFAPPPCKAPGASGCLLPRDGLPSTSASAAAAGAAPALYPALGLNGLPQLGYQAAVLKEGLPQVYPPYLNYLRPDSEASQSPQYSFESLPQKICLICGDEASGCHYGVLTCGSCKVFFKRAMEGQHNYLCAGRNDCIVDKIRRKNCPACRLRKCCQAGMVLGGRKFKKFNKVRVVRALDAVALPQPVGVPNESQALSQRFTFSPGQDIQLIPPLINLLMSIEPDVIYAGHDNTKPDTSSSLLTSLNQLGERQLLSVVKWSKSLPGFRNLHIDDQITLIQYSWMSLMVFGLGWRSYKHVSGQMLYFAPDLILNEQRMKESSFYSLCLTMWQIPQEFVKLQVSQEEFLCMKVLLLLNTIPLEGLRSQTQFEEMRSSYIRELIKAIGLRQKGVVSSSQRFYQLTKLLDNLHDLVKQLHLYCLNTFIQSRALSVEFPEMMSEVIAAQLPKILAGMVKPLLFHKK
In kind it is functional.

Experiment [9] addresses T5, Alpha-2C adrenergic receptor (Homo sapiens, UniProt P18825).
T5 sequence (P18825 whole entry): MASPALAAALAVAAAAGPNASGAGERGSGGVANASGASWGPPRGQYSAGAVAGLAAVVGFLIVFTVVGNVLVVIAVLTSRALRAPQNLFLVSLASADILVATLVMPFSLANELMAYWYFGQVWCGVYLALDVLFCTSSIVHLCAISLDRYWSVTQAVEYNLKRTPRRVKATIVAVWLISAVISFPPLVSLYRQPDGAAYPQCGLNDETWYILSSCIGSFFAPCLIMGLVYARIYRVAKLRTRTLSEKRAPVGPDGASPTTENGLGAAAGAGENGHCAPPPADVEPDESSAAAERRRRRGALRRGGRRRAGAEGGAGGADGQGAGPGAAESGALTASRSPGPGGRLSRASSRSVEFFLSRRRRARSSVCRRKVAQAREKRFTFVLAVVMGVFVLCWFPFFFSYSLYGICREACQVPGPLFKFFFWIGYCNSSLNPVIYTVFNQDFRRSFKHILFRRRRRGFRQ
It counts as functional.

Experiment [10] addresses Neuronal acetylcholine receptor subunit alpha-4 (Homo sapiens, UniProt P43681).
Experiment [11] addresses D(1A) dopamine receptor (Homo sapiens, UniProt P21728). It counts as functional, cell-based.

A value given as a limit tells only on which side of the number the result lay.
Further: assay procedure not described here.

Gamma-aminobutyric acid receptor subunit alpha-1, sequence (P62813 whole entry): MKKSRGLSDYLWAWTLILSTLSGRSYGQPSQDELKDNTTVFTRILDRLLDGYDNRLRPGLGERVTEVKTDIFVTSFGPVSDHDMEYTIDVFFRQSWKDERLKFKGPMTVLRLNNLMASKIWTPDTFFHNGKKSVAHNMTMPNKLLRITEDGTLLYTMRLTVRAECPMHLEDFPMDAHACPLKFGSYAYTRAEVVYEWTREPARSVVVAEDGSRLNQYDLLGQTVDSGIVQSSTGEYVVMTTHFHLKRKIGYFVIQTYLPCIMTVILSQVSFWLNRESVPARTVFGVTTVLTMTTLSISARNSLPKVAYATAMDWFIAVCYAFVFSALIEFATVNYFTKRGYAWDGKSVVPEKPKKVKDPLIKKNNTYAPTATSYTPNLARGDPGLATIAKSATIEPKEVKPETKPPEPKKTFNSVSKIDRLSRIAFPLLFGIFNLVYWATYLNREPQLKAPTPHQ
Melanocortin receptor 3, sequence (P41968 whole entry): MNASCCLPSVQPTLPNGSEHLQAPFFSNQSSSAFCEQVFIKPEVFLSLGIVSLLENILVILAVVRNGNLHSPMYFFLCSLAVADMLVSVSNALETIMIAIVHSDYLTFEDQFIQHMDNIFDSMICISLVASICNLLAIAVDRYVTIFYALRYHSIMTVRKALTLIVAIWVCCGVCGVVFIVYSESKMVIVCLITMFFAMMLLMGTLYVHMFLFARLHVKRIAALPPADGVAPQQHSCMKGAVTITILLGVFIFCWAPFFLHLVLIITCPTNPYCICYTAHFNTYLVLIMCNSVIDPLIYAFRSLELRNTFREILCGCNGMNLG
D(1A) dopamine receptor, sequence (P21728 whole entry): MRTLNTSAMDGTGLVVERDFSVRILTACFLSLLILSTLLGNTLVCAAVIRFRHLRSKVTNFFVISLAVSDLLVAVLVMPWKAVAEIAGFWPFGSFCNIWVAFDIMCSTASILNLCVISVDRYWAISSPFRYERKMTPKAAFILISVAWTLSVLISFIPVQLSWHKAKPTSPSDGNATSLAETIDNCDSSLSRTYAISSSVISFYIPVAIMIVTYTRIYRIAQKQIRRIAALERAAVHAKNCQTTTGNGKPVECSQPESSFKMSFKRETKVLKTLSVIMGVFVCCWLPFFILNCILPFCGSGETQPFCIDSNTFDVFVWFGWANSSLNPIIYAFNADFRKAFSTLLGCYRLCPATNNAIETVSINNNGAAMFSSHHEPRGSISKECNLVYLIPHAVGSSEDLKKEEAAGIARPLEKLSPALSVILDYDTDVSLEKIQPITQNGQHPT
Sodium-dependent noradrenaline transporter, sequence (P23975 whole entry): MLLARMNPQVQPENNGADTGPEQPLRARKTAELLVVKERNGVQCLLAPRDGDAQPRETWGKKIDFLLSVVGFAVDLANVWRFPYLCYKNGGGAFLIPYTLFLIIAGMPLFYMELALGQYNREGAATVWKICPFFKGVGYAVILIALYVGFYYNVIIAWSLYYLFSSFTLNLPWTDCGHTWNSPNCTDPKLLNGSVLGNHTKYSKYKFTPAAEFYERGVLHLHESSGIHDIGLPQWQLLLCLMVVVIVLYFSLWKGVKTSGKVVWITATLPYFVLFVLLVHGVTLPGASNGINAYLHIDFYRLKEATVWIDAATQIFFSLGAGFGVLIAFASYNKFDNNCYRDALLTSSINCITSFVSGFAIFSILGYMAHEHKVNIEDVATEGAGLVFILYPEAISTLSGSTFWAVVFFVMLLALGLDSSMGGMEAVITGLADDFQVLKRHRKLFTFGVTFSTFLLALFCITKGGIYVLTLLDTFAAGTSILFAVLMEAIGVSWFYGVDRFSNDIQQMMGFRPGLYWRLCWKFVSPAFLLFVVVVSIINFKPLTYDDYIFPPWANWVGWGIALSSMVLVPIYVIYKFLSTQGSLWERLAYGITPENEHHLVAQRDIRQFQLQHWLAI
5-hydroxytryptamine receptor 2B, sequence (P41595 whole entry): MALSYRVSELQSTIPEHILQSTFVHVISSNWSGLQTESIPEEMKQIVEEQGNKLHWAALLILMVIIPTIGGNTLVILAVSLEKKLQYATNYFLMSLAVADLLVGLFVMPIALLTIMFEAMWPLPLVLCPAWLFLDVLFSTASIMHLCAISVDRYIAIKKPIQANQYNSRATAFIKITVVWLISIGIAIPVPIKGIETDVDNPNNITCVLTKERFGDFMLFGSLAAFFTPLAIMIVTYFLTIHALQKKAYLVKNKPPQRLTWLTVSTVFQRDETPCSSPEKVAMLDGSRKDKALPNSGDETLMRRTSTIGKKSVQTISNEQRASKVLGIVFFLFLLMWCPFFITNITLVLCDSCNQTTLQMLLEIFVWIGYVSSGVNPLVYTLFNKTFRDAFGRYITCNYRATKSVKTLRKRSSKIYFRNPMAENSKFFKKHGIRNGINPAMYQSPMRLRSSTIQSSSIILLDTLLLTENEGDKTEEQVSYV
Neuronal acetylcholine receptor subunit alpha-4, sequence (P43681 whole entry): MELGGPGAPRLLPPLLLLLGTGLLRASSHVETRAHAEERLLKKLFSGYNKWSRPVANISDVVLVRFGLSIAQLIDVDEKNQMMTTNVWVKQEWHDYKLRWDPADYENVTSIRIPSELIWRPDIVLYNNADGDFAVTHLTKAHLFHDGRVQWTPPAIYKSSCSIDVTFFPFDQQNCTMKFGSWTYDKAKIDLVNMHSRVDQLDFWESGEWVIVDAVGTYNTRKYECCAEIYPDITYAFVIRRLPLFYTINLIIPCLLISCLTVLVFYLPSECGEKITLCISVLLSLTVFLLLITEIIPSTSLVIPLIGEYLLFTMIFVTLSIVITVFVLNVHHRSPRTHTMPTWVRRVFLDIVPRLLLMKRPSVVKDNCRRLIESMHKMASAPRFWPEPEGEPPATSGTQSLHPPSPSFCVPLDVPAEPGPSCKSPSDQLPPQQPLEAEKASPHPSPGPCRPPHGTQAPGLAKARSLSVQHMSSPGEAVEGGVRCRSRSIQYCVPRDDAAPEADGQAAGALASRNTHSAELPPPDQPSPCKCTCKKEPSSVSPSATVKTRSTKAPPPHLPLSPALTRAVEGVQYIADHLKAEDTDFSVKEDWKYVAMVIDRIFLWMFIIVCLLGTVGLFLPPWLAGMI

Consider `CC/C=C\C/C=C\C/C=C\C/C=C\C/C=C\CCCC(=O)OCC` [ICOSAPENT ETHYL], for which the AC50 in experiment [1], in experiment [2], in experiment [3], in [4], in experiment [5] and in experiment [6] was > 30 µM throughout. Further, the AC50 in experiment [7], in [8], in [9], in experiment [10] and in experiment [11] was > 30 µM each time.
As to `NNC(=O)c1ccncc1` [ISONIAZID], the AC50 in experiment [1], in [2], in [3], in [4], in experiment [5] and in experiment [6] was > 30 µM throughout. The AC50 in experiment [7], in [8], in experiment [9], in experiment [10] and in [11] was > 30 µM in each case.
With `COc1ccc(CN2CCN(C(c3ccc(F)cc3)c3ccc(F)cc3)CC2)c(OC)c1OC` [LOMERIZINE], the AC50 in experiment [1] was > 30 µM; in [2] it was 18 µM; in experiment [3] it was 5.9 µM; in experiment [4] it was > 30 µM; in [5] it was > 30 µM; in experiment [6], > 30 µM. The AC50 in experiment [7] is > 30 µM; in [8], > 30 µM; in [9], 4.2 µM; in [10], > 30 µM; in experiment [11], > 30 µM.
For the compound `CN1CCN=C(c2ccccc2)c2cc(Cl)ccc21` [MEDAZEPAM], the AC50 in experiment [1], in [2], in [3], in experiment [4], in experiment [5] and in experiment [6] was > 30 µM in each case. In addition, the AC50 was > 30 µM in experiment [7]; > 30 µM in [8]; > 30 µM in experiment [9]; 30 µM in experiment [10]; > 30 µM in experiment [11].
As to `CC(=O)[C@H]1CC[C@H]2[C@@H]3C[C@H](C)C4=CC(=O)CC[C@]4(C)[C@H]3[C@@H](O)C[C@]12C` [MEDRYSONE], the AC50 in experiment [1], in [2], in experiment [3], in experiment [4], in experiment [5] and in experiment [6] was > 10 µM throughout. In addition, the AC50 is > 10 µM in experiment [7]; 0.0027 µM in experiment [8]; > 10 µM in [9]; > 10 µM in experiment [10]; > 10 µM in experiment [11].
Consider `CCCC(C)(COC(N)=O)COC(N)=O` [MEPROBAMATE], for which the AC50 in [1], in experiment [2], in [3], in [4], in [5] and in experiment [6] was > 10 µM each time. Moreover, the AC50 in [7] is > 10 µM; in experiment [8], > 10 µM; in experiment [9], > 30 µM; in experiment [10] it was > 10 µM; in experiment [11], > 10 µM.
As for `COc1ccc2cc(CCC(C)=O)ccc2c1` [NABUMETONE], the AC50 was > 10 µM in [1]; 20 µM in [2]; > 10 µM in experiment [3]; > 10 µM in experiment [4]; > 10 µM in experiment [5]; > 10 µM in [6]. Besides, the AC50 in [7] was > 10 µM; in experiment [8], > 10 µM; in experiment [9], > 30 µM; in [10], > 10 µM; in experiment [11], > 30 µM.
Consider `O=C(NCCO[N+](=O)[O-])c1cccnc1` [NICORANDIL], for which the AC50 in experiment [1], in experiment [2], in [3], in [4], in experiment [5] and in experiment [6] was > 30 µM in each case. Moreover, the AC50 in experiment [7], in experiment [8], in experiment [9], in [10] and in experiment [11] was > 30 µM each time.
Consider `O=C(c1cc(Cc2n[nH]c(=O)c3ccccc23)ccc1F)N1CCN(C(=O)C2CC2)CC1` [OLAPARIB], for which the AC50 in experiment [1] is > 10 µM; in experiment [2] it was > 30 µM; in [3] it was > 10 µM; in experiment [4] it was > 30 µM; in experiment [5], > 30 µM; in [6] it was > 30 µM. Moreover, the AC50 in experiment [7] was > 10 µM; in experiment [8], > 30 µM; in experiment [9], > 10 µM; in [10], > 30 µM; in experiment [11], > 10 µM.
With `C[C@]12C/C(=C/O)C(=O)C[C@@H]1CC[C@@H]1[C@@H]2CC[C@@]2(C)[C@H]1CC[C@]2(C)O` [OXYMETHOLONE], the AC50 in [1], in experiment [2], in experiment [3], in [4], in experiment [5] and in [6] was > 30 µM each time. Besides, the AC50 in experiment [7] is > 30 µM; in [8], 23 µM; in experiment [9], > 30 µM; in [10], > 30 µM; in [11] it was > 30 µM.
Take `COc1cc2[nH]c(C)c(CCN3CCN(c4ccccc4)CC3)c2cc1OC` [OXYPERTINE]: the AC50 in [1] was > 30 µM; in [2], 14 µM; in [3], 0.12 µM; in [4], > 30 µM; in experiment [5], > 30 µM; in [6], > 30 µM. The AC50 is 7.4 µM in [7]; > 30 µM in experiment [8]; 1.4 µM in experiment [9]; 27 µM in experiment [10]; > 30 µM in experiment [11].
